Experiments:
[1] = system: human pneumococcal serum 007sp; assay: Glycan microarray binding of human pneumococcal reference serum 007sp to immobilised saccharides; settings: saccharides coated on modified CodeLink NHS slides; pooled sera of 287 humans immunized with Pneumovax; FIG. 5
Experimental: (§1) Microarray slides coated with the saccharides of general formula (I) were synthesized by conjugating the saccharides of general formula (I) to said modified microarray slides, and incubated with rabbit anti-Streptococcus pneumoniae type 1 typing serum […] in the presence or absence of native Streptococcus pneumoniae type 1 polysaccharide.
[…] Slides were washed three times with water and three times with ethanol, centrifuged to dryness, and stored under argon until spotting. Diluted saccharides of general formula (I) were printed onto the modified microarray slides at 0.4 nL per spot by an automatic piezoelectric arraying robot (Scienion, Berlin, Germany). For completion of the immobilization reaction, printed slides were stored for 24 h in a humidified chamber.
(§2) Microarray slides were washed three times with water. Unreacted maleimide was quenched by submerging the slides in β-mercaptoethanol (0.1%, v/v) in PBS for 1 h at room temperature. Slides were washed three times with water and with ethanol, centrifuged to dryness, and blocked with BSA (1%, w/v) in PBS for 1 h at room temperature. Blocked slides were washed (2×PBS, 3×water), centrifuged, and incubated with the sera dilutions.
CodeLink NHS slides were incubated for 24 h (1% w/v in PBS) at 4° C. […]

[2] = system: rabbit anti-Streptococcus pneumoniae type 1 typing serum; assay: Glycan microarray binding of rabbit anti-SP1 typing serum to immobilised saccharides; settings: saccharides coated on modified GAPS II or CodeLink NHS slides; FIGS. 6-8
Experimental: as §1
Maleimide-functionalized microarrays were produced by submerging amine-coated slides (GAPS II slides, Corning) in 6-maleimidohexanoic acid N-hydroxysuccinimide ester (2 mM) in dry DMF with diisopropylethylamine (2.5% v/v) for 24 h at room temperature. Slides were washed three times with water and three times with ethanol, centrifuged to dryness, and stored under argon until spotting. Diluted saccharides of general formula (I) were printed onto the modified microarray slides at 0.4 nL per spot by an automatic piezoelectric arraying robot (Scienion, Berlin, Germany). For completion of the immobilization reaction, printed slides were stored for 24 h in a humidified chamber.
as §2, with “Blocked slides were washed (2×PBS, 3×water), centrifuged, and incubated with the sera dilutions.” left out

| SMILES | binding of human pneumococcal serum 007sp to saccharide structure on microarray slides [1] | binding of rabbit anti-Streptococcus pneumoniae type 1 typing serum to saccharide structure on microarray slides [2] |
| --- | --- | --- |
| O=C(O)[C@H]1O[C@H](O[C@H]2[C@@H](O)[C@@H](C(=O)O)O[C@H](O)[C@@H]2O)[C@H](O)[C@@H](O)[C@H]1O [α-D-GalAp-(1→3)-α-D-GalAp] | bound | bound |
| CC(=O)N[C@H]1[C@@H](O[C@@H]2[C@H](O)[C@@H](O)[C@@H](O[C@H]3[C@@H](O)[C@@H](C(=O)O)O[C@H](O)[C@@H]3O)O[C@@H]2C(=O)O)O[C@H](C)[C@H](N)[C@@H]1O [α-2,4,6-trideoxy-4-amino-D-GalNAc-(1→4)-α-D-GalAp-(1→3)-α-D-GalAp] | bound | bound |
